Assay results taken from patent publication US10023592B2, “Bromodomain inhibitors” (Celgene Quanticel Research, Inc., priority 2013, dated 2018).
Structures can show the parent of a compound that is named as a salt. Where two headings read alike, the source gives them in different places.

Biological target: BRD4(BD1) (Homo sapiens (Human), UniProt O60885)
Test: In vitro enzyme inhibition assay (BRD4 AlphaScreen)
Type: binding
Experimental: His-tagged BRD4 was cloned, expressed and purified to homogeneity. […] BRD4 binding and inhibition was assessed by monitoring the interaction of biotinylated H4-tetraacetyl peptide (AnaSpec, H4K5/8/12/16(Ac), biotin-labeled) with the target using the AlphaScreen technology (Life Technologies). […] After 20 min incubation at room temp, Alpha streptavidin donor beads and Nickel Chelate acceptor beads were added to a final concentration of 5 μg/mL.
The ability of the compounds disclosed herein to inhibit BRD4 activity was quantified and the respective IC50 value was determined.

[1] = in vitro enzyme inhibition assay

IC50 (class symbols A/B/C)	Molecule	also measured
–	8-[2-(cyclopropylmethoxy)-5-ethylsulfonylphenyl]-6-methyl-3,4,4a,8a-tetrahydro-2H-pyrido[4,3-b][1,4]oxazin-5-one [Example 366]	IC50: < 0.5 µM
0.5 to 5 µM	COc1cccc(-c2cn(C)c(=O)c3ccccc23)c1 [Example 1, 4-(3-methoxyphenyl)-2-methylisoquinolin-1-one]	–
> 5 µM	Cn1cc(-c2ccccc2F)c2ccccc2c1=O [Example 3, 4-(2-fluorophenyl)-2-methylisoquinolin-1-one]	–
> 5 µM	COc1ccccc1-c1cn(C)c(=O)c2ccccc12 [Example 4, 4-(2-methoxyphenyl)-2-methylisoquinolin-1-one]	–
0.5 to 5 µM	Cn1cc(-c2ccc3c(c2)NCCO3)c2ccccc2c1=O [Example 19, 4-(3,4-dihydro-2H-1,4-benzoxazin-6-yl)-2-methylisoquinolin-1-one]	–
0.5 to 5 µM	Cn1cc(-c2cc(N)cc(F)c2)c2ccccc2c1=O [Example 25, 4-(3-amino-5-fluorophenyl)-2-methylisoquinolin-1-one hydrochloride]	–
0.5 to 5 µM	Cn1cc(-c2ccc(F)c(N)c2)c2ccccc2c1=O [Example 26, 4-(3-amino-4-fluorophenyl)-2-methylisoquinolin-1-one hydrochloride]	–
0.5 to 5 µM	CNc1cccc(-c2cn(C)c(=O)c3ccccc23)c1 [Example 32, 2-methyl-4-[3-(methylamino)phenyl]isoquinolin-1-one Hydrochloride]	–
0.5 to 5 µM	COc1ccc(-c2cn(C)c(=O)c3cc(F)ccc23)cc1S(N)(=O)=O [Example 64, 5-(7-fluoro-2-methyl-1-oxoisoquinolin-4-yl)-2-methoxybenzenesulfonamide]	–
> 5 µM	Cn1cc(-c2ccco2)c2ccccc2c1=O [Example 66, 4-(furan-2-yl)-2-methylisoquinolin-1-one]	–
> 5 µM	Cn1cc(-c2ccn[nH]2)c2ccccc2c1=O [Example 68, 2-methyl-4-(1H-pyrazol-5-yl)isoquinolin-1-one]	–
0.5 to 5 µM	CCS(=O)(=O)Nc1cccc(-c2cn(C)c(=O)c3ccc(-c4ccccc4)cc23)c1 [Example 73, N-[3-(2-methyl-1-oxo-6-phenylisoquinolin-4-yl)phenyl]ethanesulfonamide]	–
< 0.5 µM	CCS(=O)(=O)c1ccc(O)c(-c2cn(C)c(=O)c3ccc(-c4cnn(C)c4)cc23)c1 [Example 80, 4-(5-ethylsulfonyl-2-hydroxyphenyl)-2-methyl-6-(1-methylpyrazol-4-yl) isoquinolin-1-one]	–
0.5 to 5 µM	Cc1cc(-c2cccc(NS(C)(=O)=O)c2)cn(C)c1=O [Example 96, N-[3-(1,5-dimethyl-6-oxopyridin-3-yl)phenyl]methanesulfonamide]	–
0.5 to 5 µM	Cc1c(-c2cccc(NS(C)(=O)=O)c2)cn(C)c(=O)c1C [Example 97, N-[3-(1,4,5-trimethyl-6-oxopyridin-3-yl)phenyl]methanesulfonamide]	–
> 5 µM	Cn1cc(-c2cccc(S(C)(=O)=O)c2)nc(N)c1=O [Example 104, 3-amino-1-methyl-5-(3-methylsulfonylphenyl)pyrazin-2-one]	–
> 5 µM	CCS(=O)(=O)c1cccc(-c2cn(C)c(=O)c(N)n2)c1 [Example 105, 3-amino-5-(3-ethylsulfonylphenyl)-1-methylpyrazin-2-one]	–
> 5 µM	COc1ccc(-c2cn(C)c(=O)c(N)n2)cc1NS(C)(=O)=O [Example 106, N-[5-(6-amino-4-methyl-5-oxopyrazin-2-yl)-2-methoxyphenyl]methanesulfonamide]	–

IC50 (class symbols A/B/C)	Molecule	also measured
> 5 µM	Cn1cc(-c2cccc(S(C)(=O)=O)c2)cc(N)c1=O [Example 107, 3-amino-1-methyl-5-(3-methylsulfonylphenyl)pyridin-2-one]	–
> 5 µM	CCS(=O)(=O)c1cccc(-c2cc(N)c(=O)n(C)c2)c1 [Example 108, 3-amino-5-(3-ethylsulfonylphenyl)-1-methylpyridin-2-one]	–
0.5 to 5 µM	CCNc1cc(-c2ccc(OC)c(NS(C)(=O)=O)c2)cn(C)c1=O [Example 111, N-[5-[5-(ethylamino)-1-methyl-6-oxopyridin-3-yl]-2-methoxyphenyl]methanesulfonamide]	–
0.5 to 5 µM	COc1ccc(-c2cc(NCC3CC3)c(=O)n(C)c2)cc1NS(C)(=O)=O [Example 112, N-[5-[5-(cyclopropylmethylamino)-1-methyl-6-oxopyridin-3-yl]-2-methoxyphenyl]methanesulfonamide]	–
0.5 to 5 µM	CCN(CC)c1cc(-c2ccc(OC)c(NS(C)(=O)=O)c2)cn(C)c1=O [Example 114, N-[5-[5-(diethylamino)-1-methyl-6-oxopyridin-3-yl]-2-methoxyphenyl]methanesulfonamide]	–
0.5 to 5 µM	Cn1cc(-c2cccc(NS(C)(=O)=O)c2)c2cnccc2c1=O [Example 125, N-[3-(2-methyl-1-oxo-2,6-naphthyridin-4-yl)phenyl] methanesulfonamide]	–
> 5 µM	CCS(=O)(=O)c1cccc(-c2cn(C)c(=O)c3ccncc23)c1 [Example 126, 4-(3-ethylsulfonylphenyl)-2-methyl-2,6-naphthyridin-1-one]	–
> 5 µM	Cn1cc(-c2cccc(S(C)(=O)=O)c2)n2cncc2c1=O [Example 131, 7-methyl-5-(3-methylsulfonylphenyl)imidazo[1,5-a]pyrazin-8-one]	–
> 5 µM	CCS(=O)(=O)c1cccc(-c2cn(C)c(=O)c3cncn23)c1 [Example 133, 5-(3-ethylsulfonylphenyl)-7-methylimidazo[1,5-a]pyrazin-8-one]	–
–	[2H]C([2H])([2H])n1cc(-c2cc(NS(=O)(=O)CC)ccc2Oc2ccc(F)cc2F)ccc1=O [Example 141, N-{4-(2,4-difluorophenoxy)-3-[1-(^2H3)methyl-6-oxopyridin-3-yl]phenyl}ethanesulfonamide]	IC50 [1]: < 0.5 µM
–	CCS(=O)(=O)Nc1ccc(Oc2ccc(F)cc2F)c(-c2cn(C)c(=O)c3c2CNCC3)c1 [Example 142, N-[4-(2,4-difluorophenoxy)-3-(2-methyl-1-oxo-5,6,7,8-tetrahydro-2,6-naphthyridin-4-yl)phenyl]ethanesulfonamide]	IC50 [1]: 0.5 to 5 µM
–	Cn1cc(-c2nc(S(C)(=O)=O)ncc2Oc2ccc(F)cc2F)c2ccccc2c1=O [Example 151, 4-[5-(2,4-difluorophenoxy)-2-methylsulfonylpyrimidin-4-yl]-2-methylisoquinolin-1-one]	IC50 [1]: < 0.5 µM
–	Cn1cc(-c2nc(N3CCCS3(=O)=O)ncc2OCC2CC2)c2ccccc2c1=O [Example 156, 4-[5-(cyclopropylmethoxy)-2-(1,1-dioxo-1,2-thiazolidin-2-yl)pyrimidin-4-yl]-2-methylisoquinolin-1-one]	IC50 [1]: < 0.5 µM
–	Cn1cc(-c2nc(N3CCCS3(=O)=O)ncc2Oc2ccc(F)cc2F)c2ccccc2c1=O [Example 171, 4-[5-(2,4-difluorophenoxy)-2-(1,1-dioxo-1,2-thiazolidin-2-yl)pyrimidin-4-yl]-2-methylisoquinolin-1-one]	IC50 [1]: < 0.5 µM
–	CCOc1ccc(S(C)(=O)=O)cc1-c1cn(C)c(=O)c2c1CCCC2 [Example 216, 4-(2-ethoxy-5-methylsulfonylphenyl)-2-methyl-5,6,7,8-tetrahydroisoquinolin-1-one]	IC50 [1]: < 0.5 µM
–	Cn1cc(-c2cc(S(C)(=O)=O)ccc2OCC2CC2)c2ncncc2c1=O [Example 231, 8-[2-(cyclopropylmethoxy)-5-methylsulfonylphenyl]-6-methylpyrido[4,3-d]pyrimidin-5-one]	IC50 [1]: 0.5 to 5 µM
–	CCS(=O)(=O)c1ccc(OCC2CC2)c(-c2cn(C)c(=O)c3cncnc23)c1 [Example 232, 8-[2-(cyclopropylmethoxy)-5-ethylsulfonylphenyl]-6-methylpyrido[4,3-d]pyrimidin-5-one]	IC50 [1]: < 0.5 µM

Molecule	IC50 (class symbols A/B/C)	also measured
Cn1cc(-c2cccc(S(=O)(=O)NC3CC3)c2)c2ccccc2c1=O [Example 6, N-cyclopropyl-3-(2-methyl-1-oxoisoquinolin-4-yl) benzenesulfonamide]	0.5 to 5 µM	–
Cn1cc(-c2cccc(S(=O)(=O)N3CCOCC3)c2)c2ccccc2c1=O [Example 14, 2-methyl-4-(3-morpholin-4-yl-sulfonylphenyl) isoquinolin-1-one]	0.5 to 5 µM	–
COc1ccc(-c2cn(C)c(=O)c3ccccc23)cc1S(N)(=O)=O [Example 16, 2-methoxy-5-(2-methyl-1-oxoisoquinolin-4-yl) benzenesulfonamide]	0.5 to 5 µM	–
Cn1cc(-c2cc(N)ccc2F)c2ccccc2c1=O [Example 23, 4-(5-amino-2-fluorophenyl)-2-methylisoquinolin-1-one hydrochloride]	0.5 to 5 µM	–
Cn1cc(-c2cc(N)c(F)cc2F)c2ccccc2c1=O [Example 24, 4-(5-amino-2,4-difluorophenyl)-2-methylisoquinolin-1-one hydrochloride]	0.5 to 5 µM	–
Cn1cc(-c2cccc(S(N)(=O)=O)c2)c2ccncc2c1=O [Example 55, 3-(2-methyl-1-oxo-2,7-naphthyridin-4-yl) benzenesulfonamide]	> 5 µM	–
COc1ccc(-c2cn(C)c(=O)c3cnccc23)cc1S(N)(=O)=O [Example 56, 2-methoxy-5-(2-methyl-1-oxo-2,7-naphthyridin-4-yl) benzenesulfonamide]	> 5 µM	–
Cc1cc(=O)n(C)cc1-c1cccc(NS(C)(=O)=O)c1 [Example 95, N-[3-(1,4-dimethyl-6-oxopyridin-3-yl)phenyl]methanesulfonamide]	0.5 to 5 µM	–
CCNS(=O)(=O)c1cccc(-c2cn(C)c(=O)c3ccncc23)c1 [Example 124, N-ethyl-3-(2-methyl-1-oxo-2,6-naphthyridin-4-yl) benzenesulfonamide]	0.5 to 5 µM	–
Cc1cc(=O)n(C)nc1-c1cc(S(C)(=O)=O)ccc1OCC1CC1 [Example 137, 6-[2-(cyclopropylmethoxy)-5-methylsulfonylphenyl]-2,5-dimethylpyridazin-3-one]	0.5 to 5 µM	–
